Legend:
aurora B = aurora B (Homo sapiens, UniProt Q96GD4); test: radioisotope-based P81 filter-binding assay, aurora B kinase; format: biochemical; settings: for IC50: averaged from two independent dose-response curves, read-out: Enzyme assay IC50 Aur B
Description: (§1) Compounds of formula (I)-(IV) were evaluated for abilities in inhibiting protein kinases aurora B and FLT-3 activity using radioisotope-based P81 filter-binding assay (Table 1).

FLT-3 = target: T1, FLT-3 (Homo sapiens, UniProt P36888); test: radioisotope-based P81 filter-binding assay, FLT-3 kinase; format: biochemical; settings: for IC50: averaged from two independent dose-response curves, read-out: Enzyme assay IC50 FLT-3
T1 sequence (P36888 27-993): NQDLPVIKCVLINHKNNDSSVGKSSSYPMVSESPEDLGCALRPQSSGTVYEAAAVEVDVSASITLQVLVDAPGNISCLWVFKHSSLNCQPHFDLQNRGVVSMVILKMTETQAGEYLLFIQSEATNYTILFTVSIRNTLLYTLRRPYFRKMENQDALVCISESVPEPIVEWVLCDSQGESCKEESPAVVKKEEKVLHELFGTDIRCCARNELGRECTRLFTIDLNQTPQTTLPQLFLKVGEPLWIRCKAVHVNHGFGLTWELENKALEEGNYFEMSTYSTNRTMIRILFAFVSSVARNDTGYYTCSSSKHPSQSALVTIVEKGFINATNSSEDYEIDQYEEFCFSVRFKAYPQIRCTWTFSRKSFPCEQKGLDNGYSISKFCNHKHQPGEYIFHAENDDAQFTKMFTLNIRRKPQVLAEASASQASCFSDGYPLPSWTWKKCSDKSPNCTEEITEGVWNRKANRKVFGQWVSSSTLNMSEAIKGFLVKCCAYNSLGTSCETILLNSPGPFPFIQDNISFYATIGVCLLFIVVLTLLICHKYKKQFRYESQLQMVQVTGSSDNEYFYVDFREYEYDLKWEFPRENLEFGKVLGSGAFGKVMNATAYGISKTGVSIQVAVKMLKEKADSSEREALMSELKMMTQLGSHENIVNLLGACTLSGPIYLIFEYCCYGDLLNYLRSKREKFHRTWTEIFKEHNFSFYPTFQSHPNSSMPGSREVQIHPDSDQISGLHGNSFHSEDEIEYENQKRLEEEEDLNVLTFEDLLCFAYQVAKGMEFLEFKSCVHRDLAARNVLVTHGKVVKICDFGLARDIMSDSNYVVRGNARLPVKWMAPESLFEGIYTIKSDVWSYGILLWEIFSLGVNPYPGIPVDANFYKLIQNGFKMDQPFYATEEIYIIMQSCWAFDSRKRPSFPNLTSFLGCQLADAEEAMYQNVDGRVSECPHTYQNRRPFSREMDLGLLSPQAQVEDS
Description: as §1

Chain of aurora B (Q96GD4 whole entry): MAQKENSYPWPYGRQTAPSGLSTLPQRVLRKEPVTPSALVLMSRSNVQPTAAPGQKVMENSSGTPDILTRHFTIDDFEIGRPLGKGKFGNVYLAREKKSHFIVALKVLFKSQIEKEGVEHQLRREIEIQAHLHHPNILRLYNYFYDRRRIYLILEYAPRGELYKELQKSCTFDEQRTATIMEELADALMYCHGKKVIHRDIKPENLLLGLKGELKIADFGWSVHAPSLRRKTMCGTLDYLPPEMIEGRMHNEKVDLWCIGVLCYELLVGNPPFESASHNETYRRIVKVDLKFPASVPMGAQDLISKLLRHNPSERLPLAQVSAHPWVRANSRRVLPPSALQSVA

SMILES	IC50 (aurora B)	IC50 (FLT-3)	melting point	inhibition at 1 µM (aurora B; compound at 1.0 μM, mean values (n=2), read-out: percent inhibition of enzyme catalytic activity, Aur B (numbers in parentheses))	inhibition at 1 µM (FLT-3; compound at 1.0 μM, mean values (n=2), read-out: percent inhibition of enzyme catalytic activity, FLT-3 (numbers in parentheses))
O=C1Nc2cc(NC(=O)N3CCN(c4cccc(Cl)c4)C3=O)ccc2/C1=C/c1ccc[nH]1 [D85, (Z)—N-(3-((1H-pyrrol-2-yl)methylene)-2-oxoindolin-6-yl)-3-(3-chlorophenyl)-2-oxoimidazolidine-1-carboxamide]	14.3 nM	1790 nM	> 300 °C	–	–
O=C1Nc2cc(NC(=O)N3CCN(c4ccc(Cl)c(Cl)c4)C3=O)ccc2/C1=C/c1ccc[nH]1 [D86, (Z)—N-(3-((1H-pyrrol-2-yl)methylene)-2-oxoindolin-6-yl)-3-(3,4-dichlorophenyl)-2-oxoimidazolidine-1-carboxamide]	145 nM	501 nM	> 300 °C	–	–
O=C1Nc2cc(NC(=O)N3CCN(c4ccc(Cl)c(C(F)(F)F)c4)C3=O)ccc2/C1=C/c1ccc[nH]1 [D87, (Z)—N-(3-((1H-pyrrol-2-yl)methylene)-2-oxoindolin-6-yl)-3-(4-chloro-3-(trifluoromethyl)phenyl)-2-oxoimidazolidine-1-carboxamide]	1040 nM	569 nM	> 300 °C	–	–
O=C1Nc2cc(NC(=O)N3CCN(c4ccc(C(F)(F)F)cc4)C3=O)ccc2/C1=C/c1ccc[nH]1 [D88, (Z)—N-(3-((1H-pyrrol-2-yl)methylene)-2-oxoindolin-6-yl)-2-oxo-3-(4-(trifluoromethyl)phenyl)imidazolidine-1-carboxamide]	824 nM	498 nM	> 300 °C	–	–
COc1ccc(N2CCN(C(=O)Nc3ccc4c(c3)NC(=O)/C4=C\c3[nH]c(C)c(C(=O)O)c3C)C2=O)cc1 [D95, (Z)-5-((6-(3-(4-methoxyphenyl)-2-oxoimidazolidine-1-carboxamido)-2-oxoindolin-3-ylidene)methyl)-2,4-dimethyl-1H-pyrrole-3-carboxylic acid]	3.7 nM	39.4 nM	267 to 272 °C (dec.)	–	–
Cc1[nH]c(/C=C2\C(=O)Nc3cc(NC(=O)N4CCN(C5CC5)C4=O)ccc32)c(C)c1C(=O)O [D96, (Z)-5-((6-(3-cyclopropyl-2-oxoimidazolidine-1-carboxamido)-2-oxoindolin-3-ylidene)methyl)-2,4-dimethyl-1H-pyrrole-3-carboxylic acid]	3.5 nM	217 nM	> 300 °C	–	–

More lines, now with the values ahead:

IC50 (aurora B)	IC50 (FLT-3)	melting point	inhibition at 1 µM (aurora B; compound at 1.0 μM, mean values (n=2), read-out: percent inhibition of enzyme catalytic activity, Aur B (numbers in parentheses))	inhibition at 1 µM (FLT-3; compound at 1.0 μM, mean values (n=2), read-out: percent inhibition of enzyme catalytic activity, FLT-3 (numbers in parentheses))	SMILES
> 10000 nM	854 nM	> 300 °C	–	–	O=C1Nc2cc(NC(=O)N3CCN(c4ccc(Cl)cc4)C3=O)ccc2/C1=C/c1ccc[nH]1 [D84, (Z)—N-(3-((1H-pyrrol-2-yl)methylene)-2-oxoindolin-6-yl)-3-(4-chlorophenyl)-2-oxoimidazolidine-1-carboxamide]
37.9 nM	74.1 nM	> 300 °C	–	–	O=C1Nc2cc(NC(=O)N3CCN(c4ccc(F)cc4)C3=O)ccc2/C1=C/c1ccc[nH]1 [D89, (Z)—N-(3-((1H-pyrrol-2-yl)methylene)-2-oxoindolin-6-yl)-3-(4-fluorophenyl)-2-oxoimidazolidine-1-carboxamide]
–	–	294 to 299 °C (dec.)	25.3%	26%	COc1ccc(N2CCN(C(=O)Nc3ccc4c(c3)NC(=O)/C4=C\c3ccc[nH]3)C2=O)cc1 [D91, (Z)—N-(3-((1H-pyrrol-2-yl)methylene)-2-oxoindolin-6-yl)-3-(4-methoxyphenyl)-2-oxoimidazolidine-1-carboxamide]
19.3 nM	223 nM	> 300 °C	–	–	Cc1ccc(N2CCN(C(=O)Nc3ccc4c(c3)NC(=O)/C4=C\c3ccc[nH]3)C2=O)cc1 [D92, (Z)—N-(3-((1H-pyrrol-2-yl)methylene)-2-oxoindolin-6-yl)-2-oxo-3-p-tolylimida-zolidine-1-carboxamide]
24.2 nM	1220 nM	279 to 284 °C (dec.)	–	–	CN(C)c1ccc(N2CCN(C(=O)Nc3ccc4c(c3)NC(=O)/C4=C\c3ccc[nH]3)C2=O)cc1 [D93, (Z)—N-(3-((1H-pyrrol-2-yl)methylene)-2-oxoindolin-6-yl)-3-(4-(dimethylamino)-phenyl)-2-oxoimidazolidine-1-carboxamide]
